Key:
rat brain FAAH = target: T1, rat brain FAAH (Rattus norvegicus, UniProt P97612); details: racemate; read-out: IC50 FAAH, rat brain homogenates; cited from earlier work
T1 construct: the racemate was studied in rat brain homogenates, whereas mouse brain homogenates were used here; from tissue; host or cells: rat brain homogenates
T1 sequence (P97612 1-579): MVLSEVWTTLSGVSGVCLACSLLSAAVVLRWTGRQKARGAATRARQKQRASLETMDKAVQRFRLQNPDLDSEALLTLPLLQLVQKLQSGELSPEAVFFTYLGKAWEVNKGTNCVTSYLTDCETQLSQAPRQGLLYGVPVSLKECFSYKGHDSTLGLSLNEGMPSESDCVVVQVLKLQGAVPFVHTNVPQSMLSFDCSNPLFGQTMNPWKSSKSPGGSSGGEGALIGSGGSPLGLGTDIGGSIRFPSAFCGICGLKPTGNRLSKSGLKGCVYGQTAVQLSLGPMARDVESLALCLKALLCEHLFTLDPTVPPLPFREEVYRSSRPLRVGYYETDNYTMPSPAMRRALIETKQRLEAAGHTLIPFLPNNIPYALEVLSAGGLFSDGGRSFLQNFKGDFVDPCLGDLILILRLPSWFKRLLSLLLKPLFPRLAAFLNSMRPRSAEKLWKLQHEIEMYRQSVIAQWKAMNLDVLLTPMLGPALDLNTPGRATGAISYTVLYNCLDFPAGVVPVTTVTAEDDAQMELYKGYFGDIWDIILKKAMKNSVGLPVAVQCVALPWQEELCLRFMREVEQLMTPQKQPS

RAW 264.7 cells [1] = test: Lipid profile (prostaglandins, 2-AG, AEA and related lipids) of RAW 264.7 cell extracts, UPLC-MS/MS; assay type: cell-based, mouse; details: 30 min, URB597 1 μM
RAW 264.7 cells [2] = test: [3H]AEA hydrolysis by intact RAW 264.7 cells; assay type: cell-based, mouse; details: LPS + INF-γ-treated cells; 100 nM [3H]AEA, 60 min; URB597 1 μM, flurbiprofen and (R)-Flu-AM1 10 μM
[3] = LPS + IFNγ 24 h, flurbiprofen 10 μM, (R)-Flu-AM1 10 μM, median (range), n = 5–6
[4] = Treatment None (unstimulated), flurbiprofen 10 μM, (R)-Flu-AM1 10 μM, median (range), n = 5–6

Cc1cccnc1NC(=O)C(C)c1ccc(-c2ccccc2)c(F)c1 (stereo not drawn) [Flu-AM1, 2-(2-fluorobiphenyl-4-yl)-N-(3-methylpyridin-2-yl)propanamide]
IC50 (rat brain FAAH): 0.44 µM

NC(=O)c1cccc(-c2cccc(OC(=O)NC3CCCCC3)c2)c1 [URB597, cyclohexylcarbamic acid 3′-carbamoylbiphenyl-3-yl ester, reference compound]
2-AG level relative to vehicle None median (RAW 264.7 cells [1]; [3]): 0.90 (0.70–1.11) | 9,10,13-TriHOME level relative to vehicle None median (RAW 264.7 cells [1]; [3]): 1.08 (0.68–1.89) | 9,10-DiHOME level relative to vehicle None median (RAW 264.7 cells [1]; [3]): 0.76 (0.69–1.05) | 9,12,13-TriHOME level relative to vehicle None median (RAW 264.7 cells [1]; [3]): 1.08 (0.66–1.79) | 9-HODE level relative to vehicle None median (RAW 264.7 cells [1]; [3]): 1.11 (0.49–1.20) | 11-HETE level relative to vehicle None median (RAW 264.7 cells [1]; [3]): 13.0 (4.82–25.7) | 12(13)-EpOME level relative to vehicle None median (RAW 264.7 cells [1]; [3]): 1.24 (0.92–1.72) | 12(S)-HEPE level relative to vehicle None median (RAW 264.7 cells [1]; [3]): 0.59 (0.28–1.36) | 12,13-DiHOME level relative to vehicle None median (RAW 264.7 cells [1]; [3]): 0.93 (0.85–1.26) | 12-HETE level relative to vehicle None median (RAW 264.7 cells [1]; [3]): 0.61 (0.41–0.96) | 13-HODE level relative to vehicle None median (RAW 264.7 cells [1]; [3]): 1.16 (0.49–1.43) | 13-oxo-ODE level relative to vehicle None median (RAW 264.7 cells [1]; [3]): 1.52 (0.34–2.87) | 15-HETE level relative to vehicle None median (RAW 264.7 cells [1]; [3]): 4.58 (0.97–5.29) | AEA level relative to vehicle None median (RAW 264.7 cells [1]; [3]): 1.39 (1.26–1.58) | LEA level relative to vehicle None median (RAW 264.7 cells [1]; [3]): 1.06 (0.79–1.87) | OEA level relative to vehicle None median (RAW 264.7 cells [1]; [3]): 0.97 (0.74–1.96) | PEA level relative to vehicle None median (RAW 264.7 cells [1]; [3]): 0.97 (0.88–1.31) | PGD2 level relative to vehicle None median (RAW 264.7 cells [1]; [3]): 35.1 (19.4–117) | PGE2 level relative to vehicle None median (RAW 264.7 cells [1]; [3]): 10.6 (7.33–33.5) | SEA level relative to vehicle None median (RAW 264.7 cells [1]; [3]): 0.79 (0.67–1.28) | Effect on levels of AEA and related N-acylethanolamines in the cells (RAW 264.7 cells [1]; LPS + INF-γ-treated, ionomycin (5 μM) treated cells, flurbiprofen and (R)-Flu-AM1 10 μM): modest effects | 2-AG level relative to vehicle None median (RAW 264.7 cells [1]; [4]): 1.10 (0.61–1.47) | 9,10,13-TriHOME level relative to vehicle None median (RAW 264.7 cells [1]; [4]): 1.13 (0.44–2.51) | 9,10-DiHOME level relative to vehicle None median (RAW 264.7 cells [1]; [4]): 1.10 (0.65–1.32) | 9,12,13-TriHOME level relative to vehicle None median (RAW 264.7 cells [1]; [4]): 1.23 (0.51–2.53) | 9-HODE level relative to vehicle None median (RAW 264.7 cells [1]; [4]): 1.14 (0.72–2.07) | 11-HETE level relative to vehicle None median (RAW 264.7 cells [1]; [4]): 1.12 (0–2.69) | 12(13)-EpOME level relative to vehicle None median (RAW 264.7 cells [1]; [4]): 1.07 (0.66–1.66) | 12(S)-HEPE level relative to vehicle None median (RAW 264.7 cells [1]; [4]): 0.59 (0–0.85) | 12,13-DiHOME level relative to vehicle None median (RAW 264.7 cells [1]; [4]): 1.15 (1.04–1.39) | 12-HETE level relative to vehicle None median (RAW 264.7 cells [1]; [4]): 0.94 (0.33–1.48) | 13-HODE level relative to vehicle None median (RAW 264.7 cells [1]; [4]): 1.42 (0.79–1.75) | 13-oxo-ODE level relative to vehicle None median (RAW 264.7 cells [1]; [4]): 1.40 (0.76–2.27) | 15-HETE level relative to vehicle None median (RAW 264.7 cells [1]; [4]): 1.02 (0.25–2.16) | AEA level relative to vehicle None median (RAW 264.7 cells [1]; [4]): 0.85 (0.45–1.18) | LEA level relative to vehicle None median (RAW 264.7 cells [1]; [4]): 0.79 (0.68–1.15) | PEA level relative to vehicle None median (RAW 264.7 cells [1]; [4]): 1.07 (0.87–1.28) | PGD2 level relative to vehicle None median (RAW 264.7 cells [1]; [4]): 1.37 (0.79–2.48) | PGE2 level relative to vehicle None median (RAW 264.7 cells [1]; [4]): 0.98 (0.49–1.81) | SEA level relative to vehicle None median (RAW 264.7 cells [1]; [4]): 0.80 (0.65–1.27) | Effect on hydrolysis of exogenous [3H]AEA by intact cells (RAW 264.7 cells [2]): completely blocked

— publication PMC4583449, “Characterisation of (R)-2-(2-Fluorobiphenyl-4-yl)-N-(3-Methylpyridin-2-yl)Propanamide as a Dual Fatty Acid Amide Hydrolase: Cyclooxygenase Inhibitor” (PLoS ONE, 2015)
